Kd data for seven compounds are collected here from ChEMBL document CHEMBL3991601, “The target landscape of clinical kinase drugs” (Science, 2017).

Calls of active or inactive are those of the source. For most assays here, no stated cut-off is given here; in the data, actives have a measured Kd and inactives only a lower limit.

Experiment [1] concerns the target Glycogen synthase kinase-3 alpha (Homo sapiens, UniProt P49840).
Experiment [2] addresses Protein kinase C delta type (Homo sapiens, UniProt Q05655).
For experiment [3], the target named is S-adenosylmethionine synthase isoform type-2 (Homo sapiens, UniProt P31153).
Chain of S-adenosylmethionine synthase isoform type-2 (P31153 whole entry, canonical isoform): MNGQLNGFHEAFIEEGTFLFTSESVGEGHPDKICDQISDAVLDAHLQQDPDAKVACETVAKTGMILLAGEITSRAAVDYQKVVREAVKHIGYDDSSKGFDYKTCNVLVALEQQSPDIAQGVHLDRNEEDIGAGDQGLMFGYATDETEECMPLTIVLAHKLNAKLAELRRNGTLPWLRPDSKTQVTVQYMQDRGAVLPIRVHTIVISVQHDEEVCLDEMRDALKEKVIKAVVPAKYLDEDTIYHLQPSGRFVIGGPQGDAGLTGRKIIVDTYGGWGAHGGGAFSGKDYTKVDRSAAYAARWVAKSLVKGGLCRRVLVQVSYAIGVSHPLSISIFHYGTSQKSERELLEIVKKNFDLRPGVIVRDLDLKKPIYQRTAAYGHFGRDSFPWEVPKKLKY
For experiment [4], the target named is T1, Cytochrome c1, heme protein, mitochondrial (Homo sapiens, UniProt P08574).
T1 sequence (P08574 whole entry): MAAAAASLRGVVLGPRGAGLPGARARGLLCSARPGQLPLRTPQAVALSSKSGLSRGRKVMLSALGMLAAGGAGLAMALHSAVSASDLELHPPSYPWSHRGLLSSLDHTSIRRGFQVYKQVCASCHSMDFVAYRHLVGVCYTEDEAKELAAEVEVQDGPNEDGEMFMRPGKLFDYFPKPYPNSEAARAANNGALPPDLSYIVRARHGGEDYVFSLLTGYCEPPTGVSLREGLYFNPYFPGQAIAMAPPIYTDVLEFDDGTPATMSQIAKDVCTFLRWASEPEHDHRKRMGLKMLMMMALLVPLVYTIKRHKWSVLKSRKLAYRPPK

Experiment [5] addresses Cyclin-dependent kinase 2 (Homo sapiens, UniProt P24941).
Experiment [6] concerns the target Calcium/calmodulin-dependent protein kinase type II subunit gamma (Homo sapiens, UniProt Q13555).
Experiment [7] has as its target Casein kinase I isoform gamma-1 (Homo sapiens, UniProt Q9HCP0).
Experiment [8] concerns the target Putative heat shock protein HSP 90-beta 2 (Homo sapiens, UniProt Q58FF8).
Experiment [9] has as its target Mitogen-activated protein kinase 9 (Homo sapiens, UniProt P45984).
Experiment [10] concerns the target T2, ATP-dependent RNA helicase DDX42 (Homo sapiens, UniProt Q86XP3).
T2 sequence (Q86XP3 whole entry): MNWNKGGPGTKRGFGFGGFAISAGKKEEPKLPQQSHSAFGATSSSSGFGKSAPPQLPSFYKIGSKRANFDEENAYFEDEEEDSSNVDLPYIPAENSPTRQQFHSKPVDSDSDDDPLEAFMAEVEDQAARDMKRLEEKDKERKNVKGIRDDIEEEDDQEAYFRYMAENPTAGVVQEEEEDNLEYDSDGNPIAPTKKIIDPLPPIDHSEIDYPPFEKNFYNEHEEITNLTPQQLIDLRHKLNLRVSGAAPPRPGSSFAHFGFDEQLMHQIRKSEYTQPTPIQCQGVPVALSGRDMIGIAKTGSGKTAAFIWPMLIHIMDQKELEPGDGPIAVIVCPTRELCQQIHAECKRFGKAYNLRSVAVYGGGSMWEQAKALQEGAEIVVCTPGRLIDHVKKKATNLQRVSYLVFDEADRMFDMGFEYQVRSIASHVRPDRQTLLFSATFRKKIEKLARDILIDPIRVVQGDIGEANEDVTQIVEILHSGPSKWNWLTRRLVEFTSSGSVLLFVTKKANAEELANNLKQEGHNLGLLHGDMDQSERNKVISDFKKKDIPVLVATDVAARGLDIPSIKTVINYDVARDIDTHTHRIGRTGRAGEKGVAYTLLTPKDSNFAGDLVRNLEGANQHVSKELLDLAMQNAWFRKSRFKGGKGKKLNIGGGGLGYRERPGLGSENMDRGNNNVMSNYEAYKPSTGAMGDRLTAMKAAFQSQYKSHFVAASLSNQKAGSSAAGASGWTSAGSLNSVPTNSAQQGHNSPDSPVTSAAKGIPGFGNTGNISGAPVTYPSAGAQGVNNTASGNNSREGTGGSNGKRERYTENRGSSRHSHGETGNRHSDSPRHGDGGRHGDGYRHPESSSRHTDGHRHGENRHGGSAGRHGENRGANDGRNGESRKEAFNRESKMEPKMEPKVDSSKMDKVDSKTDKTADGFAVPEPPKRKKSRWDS

Experiment [11] concerns the target T3, Ribosyldihydronicotinamide dehydrogenase [quinone] (Homo sapiens, UniProt P16083).
T3 sequence (P16083 whole entry): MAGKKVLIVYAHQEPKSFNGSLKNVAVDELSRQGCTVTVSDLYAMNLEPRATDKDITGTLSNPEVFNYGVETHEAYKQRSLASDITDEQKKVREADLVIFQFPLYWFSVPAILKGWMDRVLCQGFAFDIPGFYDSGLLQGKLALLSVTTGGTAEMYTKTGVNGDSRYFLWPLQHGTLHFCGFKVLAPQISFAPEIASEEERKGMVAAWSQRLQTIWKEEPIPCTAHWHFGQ

Experiment [12] deals with T4, Delta(24)-sterol reductase (Homo sapiens, UniProt Q15392).
T4 sequence (Q15392 whole entry): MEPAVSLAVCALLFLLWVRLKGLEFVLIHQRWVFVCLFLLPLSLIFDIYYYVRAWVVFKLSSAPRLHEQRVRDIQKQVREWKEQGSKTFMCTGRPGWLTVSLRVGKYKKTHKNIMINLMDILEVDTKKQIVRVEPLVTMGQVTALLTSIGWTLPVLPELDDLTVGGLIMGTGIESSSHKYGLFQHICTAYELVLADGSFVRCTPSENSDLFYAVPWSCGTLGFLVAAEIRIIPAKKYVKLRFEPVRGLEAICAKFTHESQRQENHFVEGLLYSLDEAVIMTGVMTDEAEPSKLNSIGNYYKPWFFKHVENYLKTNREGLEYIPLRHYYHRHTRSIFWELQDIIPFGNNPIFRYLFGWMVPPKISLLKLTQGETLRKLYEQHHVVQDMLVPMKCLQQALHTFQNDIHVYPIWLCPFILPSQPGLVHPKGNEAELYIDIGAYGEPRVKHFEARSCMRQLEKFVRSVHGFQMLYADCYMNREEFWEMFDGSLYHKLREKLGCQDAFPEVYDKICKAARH

Experiment [13] deals with T5, Aurora kinase A (Homo sapiens, UniProt O14965).
T5 sequence (O14965 whole entry): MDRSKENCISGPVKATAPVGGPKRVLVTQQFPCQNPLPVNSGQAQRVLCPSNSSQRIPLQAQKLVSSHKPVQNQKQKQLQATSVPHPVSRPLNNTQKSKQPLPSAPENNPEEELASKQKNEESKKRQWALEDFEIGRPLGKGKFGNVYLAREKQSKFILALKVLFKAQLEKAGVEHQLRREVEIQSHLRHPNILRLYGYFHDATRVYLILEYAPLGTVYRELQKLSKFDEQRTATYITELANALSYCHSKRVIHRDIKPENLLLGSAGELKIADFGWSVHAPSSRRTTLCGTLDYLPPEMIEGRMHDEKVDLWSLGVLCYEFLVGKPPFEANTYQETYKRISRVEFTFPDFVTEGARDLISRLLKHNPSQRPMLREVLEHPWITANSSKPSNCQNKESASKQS

Chain of Glycogen synthase kinase-3 alpha (P49840 whole entry): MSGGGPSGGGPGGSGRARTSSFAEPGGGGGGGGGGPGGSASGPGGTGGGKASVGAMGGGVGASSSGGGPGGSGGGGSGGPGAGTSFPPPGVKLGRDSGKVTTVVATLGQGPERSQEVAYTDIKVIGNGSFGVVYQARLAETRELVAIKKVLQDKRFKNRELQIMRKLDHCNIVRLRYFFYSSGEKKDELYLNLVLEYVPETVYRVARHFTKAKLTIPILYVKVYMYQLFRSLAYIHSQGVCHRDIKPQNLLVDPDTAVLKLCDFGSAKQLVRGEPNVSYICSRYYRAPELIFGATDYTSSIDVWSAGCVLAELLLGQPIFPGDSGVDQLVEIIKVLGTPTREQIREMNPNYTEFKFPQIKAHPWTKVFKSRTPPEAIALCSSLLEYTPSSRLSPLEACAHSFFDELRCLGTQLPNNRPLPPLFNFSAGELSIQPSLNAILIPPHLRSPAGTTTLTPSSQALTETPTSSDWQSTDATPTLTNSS
Chain of Calcium/calmodulin-dependent protein kinase type II subunit gamma (Q13555 whole entry, canonical isoform): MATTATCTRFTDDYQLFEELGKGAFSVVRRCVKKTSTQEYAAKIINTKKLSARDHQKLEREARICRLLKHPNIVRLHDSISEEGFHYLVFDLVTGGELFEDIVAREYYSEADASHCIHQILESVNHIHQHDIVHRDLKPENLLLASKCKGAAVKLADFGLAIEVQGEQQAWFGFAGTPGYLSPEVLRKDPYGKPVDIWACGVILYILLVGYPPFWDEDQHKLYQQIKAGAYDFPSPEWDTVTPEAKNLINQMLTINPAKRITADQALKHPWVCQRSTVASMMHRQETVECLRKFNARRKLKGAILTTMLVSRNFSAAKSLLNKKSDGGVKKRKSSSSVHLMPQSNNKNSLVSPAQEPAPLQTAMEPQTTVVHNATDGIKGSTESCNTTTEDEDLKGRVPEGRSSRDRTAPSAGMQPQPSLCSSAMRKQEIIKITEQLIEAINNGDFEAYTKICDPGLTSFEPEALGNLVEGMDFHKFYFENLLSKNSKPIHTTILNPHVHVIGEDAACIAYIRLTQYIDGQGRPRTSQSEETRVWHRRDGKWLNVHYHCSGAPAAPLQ
Chain of Mitogen-activated protein kinase 9 (P45984 whole entry): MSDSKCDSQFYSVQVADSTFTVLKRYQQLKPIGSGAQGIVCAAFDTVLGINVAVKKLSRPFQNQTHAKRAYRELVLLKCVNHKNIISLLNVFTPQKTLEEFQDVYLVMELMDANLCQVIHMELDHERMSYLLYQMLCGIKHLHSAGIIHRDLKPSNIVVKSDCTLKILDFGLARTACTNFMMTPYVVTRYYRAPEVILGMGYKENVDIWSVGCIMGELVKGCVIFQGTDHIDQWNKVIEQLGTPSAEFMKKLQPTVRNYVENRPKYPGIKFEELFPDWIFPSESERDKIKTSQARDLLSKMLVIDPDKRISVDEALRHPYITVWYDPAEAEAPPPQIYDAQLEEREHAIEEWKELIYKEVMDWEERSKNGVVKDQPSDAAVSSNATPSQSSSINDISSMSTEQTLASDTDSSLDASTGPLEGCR
Chain of Protein kinase C delta type (Q05655 whole entry, canonical isoform): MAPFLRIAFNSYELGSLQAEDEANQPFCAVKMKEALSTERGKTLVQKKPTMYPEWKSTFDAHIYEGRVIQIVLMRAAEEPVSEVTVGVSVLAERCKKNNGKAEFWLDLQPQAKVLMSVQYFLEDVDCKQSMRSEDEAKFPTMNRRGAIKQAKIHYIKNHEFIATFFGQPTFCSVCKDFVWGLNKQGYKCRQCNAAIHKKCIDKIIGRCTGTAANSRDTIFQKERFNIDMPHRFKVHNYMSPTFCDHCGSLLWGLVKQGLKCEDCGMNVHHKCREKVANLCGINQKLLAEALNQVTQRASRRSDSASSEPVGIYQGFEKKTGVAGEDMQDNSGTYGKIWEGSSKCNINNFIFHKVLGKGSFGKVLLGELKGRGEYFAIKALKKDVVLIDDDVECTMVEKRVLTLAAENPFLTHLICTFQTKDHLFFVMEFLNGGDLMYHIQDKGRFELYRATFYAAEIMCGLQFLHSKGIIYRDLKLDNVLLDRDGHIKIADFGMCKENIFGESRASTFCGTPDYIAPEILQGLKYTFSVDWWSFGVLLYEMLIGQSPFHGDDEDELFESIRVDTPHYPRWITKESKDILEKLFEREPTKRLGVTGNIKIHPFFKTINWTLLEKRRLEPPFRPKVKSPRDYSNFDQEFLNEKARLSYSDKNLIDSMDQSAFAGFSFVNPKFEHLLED
Chain of Putative heat shock protein HSP 90-beta 2 (Q58FF8 whole entry): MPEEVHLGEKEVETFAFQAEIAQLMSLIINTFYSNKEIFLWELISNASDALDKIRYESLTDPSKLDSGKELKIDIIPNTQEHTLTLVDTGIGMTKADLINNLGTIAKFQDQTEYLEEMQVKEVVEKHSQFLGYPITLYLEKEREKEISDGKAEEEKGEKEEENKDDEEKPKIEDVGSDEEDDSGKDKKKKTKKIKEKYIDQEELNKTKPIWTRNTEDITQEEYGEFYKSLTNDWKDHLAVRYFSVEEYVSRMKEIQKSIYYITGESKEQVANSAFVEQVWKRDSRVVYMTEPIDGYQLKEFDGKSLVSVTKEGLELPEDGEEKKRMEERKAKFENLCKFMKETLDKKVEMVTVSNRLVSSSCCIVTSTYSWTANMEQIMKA
Chain of Casein kinase I isoform gamma-1 (Q9HCP0 whole entry, canonical isoform): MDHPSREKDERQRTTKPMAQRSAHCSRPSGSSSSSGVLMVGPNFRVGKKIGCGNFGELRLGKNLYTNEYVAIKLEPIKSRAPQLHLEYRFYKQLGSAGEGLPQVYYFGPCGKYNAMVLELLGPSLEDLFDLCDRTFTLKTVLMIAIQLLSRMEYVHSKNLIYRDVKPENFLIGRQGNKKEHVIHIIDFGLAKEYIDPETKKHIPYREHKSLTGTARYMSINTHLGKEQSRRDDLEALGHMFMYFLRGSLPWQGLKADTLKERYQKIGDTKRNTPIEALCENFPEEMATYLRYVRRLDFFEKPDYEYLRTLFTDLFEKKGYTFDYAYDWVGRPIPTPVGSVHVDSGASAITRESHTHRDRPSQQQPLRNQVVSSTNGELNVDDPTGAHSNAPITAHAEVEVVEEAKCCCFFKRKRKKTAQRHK

One may read the Kd as the free concentration of one partner at which half of the binding sites on the other are occupied at equilibrium, for simple one-to-one binding. Turning to `CCNC(=O)C#Cc1ccc2c(c1)NC(=O)/C2=C(\Nc1ccc(CN(C)C)cc1)c1ccccc1`, the Kd in experiment [1], in experiment [2], in experiment [3], in [4], in experiment [5] and in [6] was > 30 µM (inactive) each time. The Kd in experiment [7], in experiment [8], in experiment [9], in experiment [10], in experiment [11] and in experiment [12] was > 30 µM (inactive) each time.

For the compound `Cc1csc(-c2nnc(Nc3ccc(Oc4ncccc4-c4ccnc(N)n4)cc3)c3ccccc23)c1` [AMG-900], the Kd is > 30 µM (inactive) in experiment [1]; 1.09 µM (active) in experiment [2]; > 30 µM (inactive) in [4]; > 30 µM (inactive) in experiment [5]; > 30 µM (inactive) in [6]; > 30 µM (inactive) in [7]. In addition, the Kd was > 30 µM (inactive) in experiment [8]; > 30 µM (inactive) in [9]; > 30 µM (inactive) in experiment [10]; 3.35 µM (active) in experiment [11]; > 30 µM (inactive) in experiment [12].

Regarding `NC(=O)Nc1cc(-c2cccc(F)c2)sc1C(=O)N[C@H]1CCCNC1` [AZD-7762], the Kd in [1] is > 30 µM (inactive); in experiment [2] it was 0.928 µM; in experiment [5], > 30 µM (inactive); in experiment [6], > 30 µM (inactive); in [13] it was > 30 µM (inactive); in [7], > 30 µM (inactive). The Kd in [8], in experiment [9], in experiment [11] and in [12] was > 30 µM (inactive) each time.

As to `CC(C)(C)c1nc(-c2cccc(NS(=O)(=O)c3c(F)cccc3F)c2F)c(-c2ccnc(N)n2)s1` [DABRAFENIB], the Kd in [2] was > 30 µM (inactive); in experiment [3], > 30 µM (inactive); in [4], > 30 µM (inactive); in experiment [5], 0.019 µM (active); in experiment [6], > 30 µM (inactive); in experiment [13] it was > 30 µM (inactive). Moreover, the Kd in [8], in experiment [10], in experiment [11] and in experiment [12] was > 30 µM (inactive) in each case.

`O=C(Nc1cc(C(F)(F)F)cc(C(F)(F)F)c1)c1cc(Cl)ccc1O` [IMD-0354]: the Kd in experiment [3], in [4], in experiment [5], in experiment [6], in experiment [13] and in experiment [7] was > 30 µM (inactive) throughout. In addition, the Kd in [8], in [9], in [10], in [11] and in experiment [12] was > 30 µM (inactive) each time.

Regarding `FC(F)(F)c1ccc(/C=C/c2nc(COc3ccc(CCCCn4ccnn4)cc3)co2)cc1` [MUBRITINIB], the Kd in experiment [1], in [2], in experiment [4], in experiment [5], in experiment [6] and in [13] was > 30 µM (inactive) throughout. Further, the Kd in [7], in [8], in experiment [9], in experiment [11] and in experiment [12] was > 30 µM (inactive) throughout.

Consider `CCOc1cc2ncc(C#N)c(Nc3ccc(F)c(Cl)c3)c2cc1NC(=O)/C=C/CN(C)C` [PELITINIB], for which the Kd in [1], in experiment [3], in experiment [4], in experiment [5], in experiment [6] and in experiment [13] was > 30 µM (inactive) each time. The Kd in experiment [7], in [9], in experiment [10], in [11] and in experiment [12] was > 30 µM (inactive) throughout.
